Positions of bridges follow the written chain, without caps; N, C: chain ends. Non-standard residues stand in square brackets, D forms with d. No end group written: not given here. Abu = CC[C@H](N)C(=O)O; Dhb = C/C=C(\N)C(=O)O; Dha = C=C(N)C(=O)O
Columns and labels:
B. obeum MSK.18.40 = experiment: MIC assay, anaerobic broth dilution; assay type: cell-based, Blautia obeum; conditions: BHIS, 37 °C, 48 h, 3-fold serial dilution
Description: Antibiotic treatment may result in collateral damage to commensal bacteria in the human microbiome, leading to dysbiosis and susceptibility to various diseases.[44] How lantibiotics impact Gram-positive commensals from the human gut has remained unclear. Therefore, we performed antimicrobial activity tests of these lantibiotics against selected Gram-positive human gut commensals, most of which belong to the Lachnospiraceae family, one of the most abundant bacterial families in the human gut.[27] In general, human gut commensals were more susceptible to the set of investigated lantibiotics compared to pathogens (Figure 3). […]
Isolation of human gut commensal bacteria
Isolation and growth of commensal bacteria was done as previously reported.5 Briefly, fresh donor fecal samples were transferred into an anaerobic chamber (Coy Labs) within 1 h of collection. The anaerobic chamber was maintained using a gas mix consisting of 5% hydrogen, 5% carbon dioxide and 90% nitrogen, and hydrogen was maintained at ~3.0% using an anaerobic gas infuser. […]
(§1) All MIC assays were performed under anaerobic condition. […] Lantibiotics were dissolved in DPBS, and concentrations were determined by BCA assay (Pierce) according to the manufacturer’s protocol. […]

C. difficile VPI10463 = experiment: MIC assay, anaerobic broth dilution; assay type: cell-based, Clostridioides difficile; conditions: BHIS, 37 °C, 48 h, 3-fold serial dilution
Description: Next, we set out to test the antimicrobial activities of these purified lantibiotics against a panel of Gram-positive bacteria that are representatives of some of the most prevalent human pathogens: VRE, Methicillin-resistant S. aureus USA300 (MRSA), Methicillin-resistant Staphylococcus epidermidis SK135 (MRSE), Listeria monocytogenes 10403S, and Clostridioides difficile VPI10463. We examined the growth of bacteria in a 96-well plate under a concentration gradient of lantibiotics under anaerobic conditions (Figure S2B).
Elution Buffer (4 M guanidine hydrochloride, 20 mM Tris HCl, pH 7.5 at 25 °C, 100 mM NaCl, 1 M imidazole). Peptides eluted from the Ni resin were concentrated and desalted using 3 kDa Amicon filters (Millipore). For leader peptide removal, the peptide (1:20 trypsin to peptide) was incubated with the trypsin protease in 50 mM Tris-HCl, pH 8 overnight at 37 °C. Lastly, the core peptides were further purified with HPLC using an Agilent 1200 instrument (Agilent) as specified […]
in general methods. […]
For broth cultures, isolates were grown in pre-reduced BHI supplemented with 5 g/L yeast extract (Difco, BD) and 0.1% L-cysteine under anaerobic condition. […]
as §1

[1] = Liposome permeabilization assay, liposomes with lipid II; assay type: biochemical; conditions: 375 nM lantibiotic; DOPC with 0.1 mol% lipid II, 50 µM phospholipid; pyranine fluorescence, 30 min, room temperature; three replicates; Figure S7B
Protocol: To further investigate the mechanisms of action of these nisin-like lantibiotics, we performed liposome permeabilization assays using liposomes with or without lipid II (Figure S7).
Liposome Permeabilization Assay
To prepare pyranine encapsulated liposomes, DOPC (25 mg/mL in CHCl3, purchased from Avanti) was deposited into a vial and mixed with lipid II (dissolved in 2:1 CHCl3: MeOH, prepared chemoenzymatically).6 The solvent was removed using a stream of N2 leaving a thin film. Residual solvent was removed by storing it overnight in a vacuum desiccator. The film was rehydrated in buffer (5 mM Tricine, 5 mM MES, 5 mM NaCl, 1 mM pyranine pH = 6.0) and suspended with vortexing. The suspension was subjected to freeze-thaw three times before extrusion through a […] polycarbonate filter (21 passes). Excess pyranine was removed by passing the liposome solution through a Sephadex G-50 column previously equilibrated with buffer (5 mM Tricine, 5 mM MES, 5 mM NaCl, pH = 6.0). The eluted liposome solution containing the highest concentration of encapsulated pyranine (as determined visually with a UV lamp) was immediately placed on ice. Phospholipid concentration was determined by NMR as described previously.7 To measure liposome permeabilization, to a 96 well black polystyrene plate was added buffer (5 mM Tricine, 5 mM MES, 5 mM NaCl, pH = 8.0; 97 µL) and liposome solution (3 µL; 50 µM phospholipid concentration during assay). The wells were allowed to equilibrate for 8 min at room temperature then antibiotic was added. The antibiotic concentration in each well was 375 nM.
Pyranine fluorescence was monitored for 30 min then Triton X-100 was added to a final concentration of 0.1% and pyranine fluorescence was monitored for an additional 5 min. The pyranine fluorescence signal was max-min normalized. […]
Fig. S7 Liposome permeabilization assays of nisin-like lantibiotics. (A) Scheme of liposome […]
low fluorescence. Fluorescence increases upon liposome permeabilization and pH increase . (B) Fraction of liposomes permeabilized by lantibiotics (375 nM). Liposomes were composed of DOPC with or without 0.1 mol% lipid II. Error bars represent the standard of deviation of three […]
(1 picture or pasted object on this page, not shown here)

**Q.** For “nisin A (I[Dhb]AI[Dha]LC[Abu]PGCK[Abu]GALMGCNMK[Abu]A[Abu]CHCSIHV[Dha]K; thioether 8-11, 13-19, 23-26, 25-28, 3-7; UniProt P13068 24-57, looked up) [prototypical class I lantibiotic produced by L. lactis, food preservative; commercial nisin A]”, which “nisin A MIC” value (B. obeum MSK.18.40) is on record?
**A.** The value was 0.0110 µM.

**Q.** And the “nisin A MIC” value (C. difficile VPI10463)?
**A.** The value was 2.67 µM.

**Q.** And the “permeabilization of lipid II-containing liposomes (in words)” value [1]?
**A.** The value was “strongly induced permeabilization”.
